Key:
HCT 116 cells [1] = experiment: ROS determination (carboxy-H2DCFDA, DCF fluorescence); format: cell-based, human; settings: 50 μM, 3 h, versus DMSO control
Procedure: Oxidative stress was assessed through estimating the level of ROS using the H2DCFDA assay with modifications. Briefly, HCT 116 cells were seeded in 6-well plates and incubated for 24-48 h at 37°C till 70-80% confluency. They were treated with H2O2 (200 μM) or compounds 4 and 5 (20, 30, 40 or 50 μM) for 3 h. Following treatment, cells were washed with PBS and incubated with 10 μM carboxy-H2DCFDA in PBS at 37°C in the dark for 45 min to allow reaction between taken up H2DCF and ROS. The cells were collected, washed with cold PBS, pelleted, resuspended in 200 μl of PBS and transferred to wells in a 96-well black fluorescence plate. The fluorescence intensities were measured at an excitation wavelength of 485 nm and an emission wavelength of 530 nm using a Tecan Infinite M200 Pro microplate reader. The results were expressed as a percentage of fluorescence intensities measured in drug-treated cells over those produced in DMSO-treated cells.

HCT 116 cells [2] = experiment: total cellular thiols; format: cell-based, human; settings: 20-50 μM
[3] = test system: Trx-ASK1 complex in ASK1-overexpressing HCT 116 cells; experiment: Trx-ASK1 interaction by Trx immunoprecipitation; format: cell-based, human
Procedure: HCT 116 cells were seeded in 60 mm plates and upon reaching 40% confluency, they were transfected with 1.5 μg of pCMV-SPORT6-ASK1 per plate. When the transfected cells reached ~70% confluency, they were treated with DMSO or compound 4 at indicated concentrations for 4 h and lysates were collected for immunoprecipitation set-up. For each lysate sample, a volume containing 1 mg of protein was mixed with 1.5 μg of anti-Trx antibody coupled to 20 μl of protein G-sepharose (GE Healthcare) and tumbled at 4°C for 2 h. The G-sepharose beads were washed three times in a cold washing buffer containing 20 mM Tris (pH 7.5), 0.5 M NaCl and 1 mM EGTA and once in a buffer containing 50 mM Tris (pH 7.5). The immunoprecipitated proteins were denatured in SDS sample buffer containing 5% β-mercaptoethanol and subjected to SDS-PAGE and Western blotting.

recombinant rat TrxR [4] = biological target: T1, recombinant rat TrxR (Rattus norvegicus, UniProt O89049); experiment: reversibility of TrxR inhibition (desalting, DTNB reduction assay); format: biochemical; settings: 20 μM, 30 min, then desalting; activity followed 2 h post-desalting
T1 construct: made in house
T1 sequence (O89049 1-499): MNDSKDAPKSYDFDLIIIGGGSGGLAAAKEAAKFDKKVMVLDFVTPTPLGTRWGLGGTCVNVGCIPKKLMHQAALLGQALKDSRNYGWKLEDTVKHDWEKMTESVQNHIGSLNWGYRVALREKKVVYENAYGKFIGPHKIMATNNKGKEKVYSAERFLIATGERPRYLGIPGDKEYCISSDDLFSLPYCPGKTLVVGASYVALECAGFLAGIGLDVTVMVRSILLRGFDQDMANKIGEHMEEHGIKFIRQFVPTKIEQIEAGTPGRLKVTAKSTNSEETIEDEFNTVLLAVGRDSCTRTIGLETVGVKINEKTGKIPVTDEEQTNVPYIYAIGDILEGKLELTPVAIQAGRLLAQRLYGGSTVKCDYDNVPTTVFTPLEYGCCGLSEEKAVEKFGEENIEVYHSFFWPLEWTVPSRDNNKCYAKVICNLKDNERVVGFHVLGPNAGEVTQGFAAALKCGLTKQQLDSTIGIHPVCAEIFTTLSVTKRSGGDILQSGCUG

recombinant rat TrxR [5] = biological target: T1, recombinant rat TrxR; experiment: juglone reduction versus DTNB reduction by recombinant rat TrxR; format: biochemical; settings: 15 min incubation, 15 nM TrxR, 250 μM NADPH, 1-100 μM
Procedure: The assay, designed to determine the ability of mammalian TrxR to reduce juglone at the N-terminal active center, was performed as described previously. Briefly, 2 μl of diluted DMSO stocks of compounds 4 and 5 (final concentrations 1-100 μM) were incubated in 198 μl of 15 nM recombinant rat TrxR, 250 μM NADPH and 0.1 mg/ml BSA in TE buffer at room temperature in 96-well plates for 15 min. 100 mM stock solution of juglone in DMSO was prepared fresh for each experiment and diluted in TE buffer to a 300 μM working solution. The incubation was terminated by the addition of 100 μl of 300 μM juglone solution (final concentration 100 μM), and NADPH consumption was monitored at 340 nm for 5 min using the VersaMax microplate reader. The linear decrease in NADPH absorbance was used for calculating juglone reduction activity. The results were expressed as % of TrxR juglone reduction activity of drug-treated sample over that of DMSO-treated sample.
The experiments were performed at the same time with a corresponding DTNB reduction assay as described above with modifications so as to keep the experimental parameters and conditions similar to those in the juglone reduction assay. […] Following 15 min incubation with compound 4 or 5, 50 μl of 8.75 μM DTNB solution (final concentration 1.75 μM) was added to each well and DTNB reduction was measured at 412 nm for 2 min.

HCT 116 cells [6] = experiment: apoptosis induction by Western blot of cleaved caspase 3 and PARP; format: cell-based, human; settings: 10 h
Procedure: Cells were seeded onto 100 mm or 60 mm culture plates and upon reaching ~70% confluency, they were subjected to drug treatment for indicated durations. Pellets of compound-treated or DMSO control cells comprising both attached and floating cells were collected and lysed in lysis buffer (25 mM Tris-HCl pH 7.5, 100 mM NaCl, 2.5 mM EDTA, 2.5 mM EGTA, 20 mM NaF, 1 mM Na3VO4, 20 mM sodium β-glycerophosphate, 10 mM sodium pyrophosphate, 0.5% Triton X-100) with freshly added protease inhibitor cocktail (Roche Diagnostics). Prior to being used in Western blot analysis and/or cellular TrxR, GR, Trx and GPx activity determination, lysates were precleared by centrifugation and protein concentrations were determined using a modified Bradford assay (Bio-Rad Laboratories) as described in the manufacturer's manual. This procedure for collecting whole cell lysate was used for all experiments except for the Trx-redox state determination experiment. Equal amounts of protein (50 μg) in each lysate sample were separated by SDS-PAGE, followed by electroblotting onto nitrocellulose membranes. Electroblotted proteins on membranes were probed with a primary antibody and subsequently by a secondary antibody conjugated to HRP.

| SMILES | DCF fluorescence (cellular oxidative stress) (HCT 116 cells [1]) | total cellular thiols (HCT 116 cells [2]) | amount of ASK1 bound to Trx1 [3] | reversibility of TrxR inhibition (recombinant rat TrxR [4]) | juglone reduction compared with DTNB reduction by inhibited TrxR (recombinant rat TrxR [5]) | apoptosis induction (cleaved caspase 3 and PARP) (HCT 116 cells [6]) |
| --- | --- | --- | --- | --- | --- | --- |
| CCCCN1C(=O)/C(=C/C(C)=O)c2ccccc21 [Compound 4] | markedly increased DCF fluorescence | depletion of total cellular thiols in a dose-dependent manner | dose-dependent decrease | irreversible inhibitors of TrxR | juglone reduction was more preserved than DTNB reduction | Dose-dependent induction of apoptosis |
| CC(=O)/C=C1/C(=O)N(Cc2ccccc2)c2ccccc21 [Compound 5] | markedly increased DCF fluorescence | depletion of total cellular thiols in a dose-dependent manner |  | irreversible inhibitors of TrxR | juglone reduction was more preserved than DTNB reduction | Dose-dependent induction of apoptosis |
